Measurements published in patent US20090143361A1, “Pyrido[3,2-E]Pyrazines, Process For Preparing The Same, And Their Use As Inhibitors Of Phosphodiesterase 10” (ELBION GMBH, priority 2007, published 2009).
Read-outs that look alike come from different tables or passages of the source.

Columns and labels:
PDE10 from pig striatum = PDE10 from pig striatum (Sus scrofa, UniProt A0A287B941); assay: Inhibition of PDE10 from pig striatum ([3H]-cAMP SPA); type: biochemical
human recombinant PDE10A = target: T1, human recombinant PDE10A (Homo sapiens, UniProt Q9Y233); assay: Inhibition of PDE10, human recombinant PDE10A ([3H]-cAMP SPA); type: biochemical
T1 construct: made in house; host or cells: SF21 insect cells (baculovirus)
Method: The gene was than inserted into a baculovirus vector, ligated with the baculovirus DNA. The enzyme-protein was expressed in SF21-cells. The enzyme was isolated from these cells by harvesting the cells by a centrifugation at 200 g to collect the cells. The cells were resuspended in 50 mM Tris-HCl/5 mM MgCl2 buffer (pH=7.4) and lysed by a sonication of the cells. The cytosolic PDE10A was obtained by a centrifugation at 48000 g for 1 h in the supernatant and stored at −70° C. PDE10 activity was determined in a one step procedure in microtiterplates. […] Nonspecific activity was tested without the enzyme. The reaction was initiated by addition of the substrate solution and was carried out at 37° C. for 30 minutes. Enzymatic activity was stopped by addition of 25 μl YSi-SPA-beads (Amersham-Pharmacia). One hour later the mixture was measured in a liquid scintillation counter for microtiterplates (Microbeta Trilux). To pipette the incubation mixture a robot Biomek (Fa. Beckman) is used. […] For determination of IC50 values the Hill-plot, 2-parameter-model, was used.

[1] = rats; Kostowski et al. 1976; cited from earlier work
[2] = rats; Kostowski et al. 1976; cited from earlier work; remark: listed apart in the source
[3] = rats; Kostowski et al. 1976; cited from earlier work; remark: listed apart in the source
[4] = target: PDE10 from guinea pig striatum (Cavia porcellus, UniProt A0A286XN47); assay: Inhibition of PDE10 from guinea pig striatum ([3H]-cAMP SPA); type: biochemical; details: Method B
Method: (§1) The phosphodiesterase isoenzyme 10 (PDE10) activity was determined in preparations of rat, pig and guinea pig striatum respectively. Striatum from male Wistar rats (180-200 g), male hybrid pigs (150 kg) and male guinea pigs (CRL (HA), 500 g) respectively were collected and frozen at −70° C. At the day of preparation 0.5 g striatum was homogenized in 10 ml 50 mM Tris/Mg-buffer at 4° C. and centrifuged for one hour at 100000 g. The supernatant is called the cytosolic fraction and was removed and stored on ice. The pellet was resuspended in the same buffer, but containing 1% Triton and incubated for 45 min at 4° C. Both fractions were independently applied onto a 5 ml Hi Trap™ QHP column at the Akta-FPLC. After washing the columns the bound PDE protein was eluted with an increasing sodium chloride gradient (0 mM-500 mM sodium chloride) in 50 mM Tris/Mg-buffer at 4° C. for the cytosolic fraction and in the presence of 1% Triton for the membrane fraction. […] The fractions with PDE10-activity were pooled and frozen in aliquots until use at −20° C. PDE10 activity was determined in a one step procedure in microtiterplates. […] Nonspecific activity was tested without the enzyme. […] One hour later the mixture was measured in a liquid scintillation counter for microtiterplates (Microbeta Trilux). […]

[5] = target: Phosphodiesterase (PDE) 10A (Homo sapiens, UniProt Q9Y233); details: Soderling et al. 1999; cited from earlier work
PDE10 from rat striatum = target: T2, PDE10 from rat striatum (Rattus norvegicus, UniProt Q9QYJ6); assay: Inhibition of PDE10 from rat striatum ([3H]-cAMP SPA); type: biochemical; details: Method B, read-out: Km-value for the substrate
T2 construct: from tissue; host or cells: rat (Wistar) striatum, FPLC fractions
T2 sequence (Q9QYJ6 1-794): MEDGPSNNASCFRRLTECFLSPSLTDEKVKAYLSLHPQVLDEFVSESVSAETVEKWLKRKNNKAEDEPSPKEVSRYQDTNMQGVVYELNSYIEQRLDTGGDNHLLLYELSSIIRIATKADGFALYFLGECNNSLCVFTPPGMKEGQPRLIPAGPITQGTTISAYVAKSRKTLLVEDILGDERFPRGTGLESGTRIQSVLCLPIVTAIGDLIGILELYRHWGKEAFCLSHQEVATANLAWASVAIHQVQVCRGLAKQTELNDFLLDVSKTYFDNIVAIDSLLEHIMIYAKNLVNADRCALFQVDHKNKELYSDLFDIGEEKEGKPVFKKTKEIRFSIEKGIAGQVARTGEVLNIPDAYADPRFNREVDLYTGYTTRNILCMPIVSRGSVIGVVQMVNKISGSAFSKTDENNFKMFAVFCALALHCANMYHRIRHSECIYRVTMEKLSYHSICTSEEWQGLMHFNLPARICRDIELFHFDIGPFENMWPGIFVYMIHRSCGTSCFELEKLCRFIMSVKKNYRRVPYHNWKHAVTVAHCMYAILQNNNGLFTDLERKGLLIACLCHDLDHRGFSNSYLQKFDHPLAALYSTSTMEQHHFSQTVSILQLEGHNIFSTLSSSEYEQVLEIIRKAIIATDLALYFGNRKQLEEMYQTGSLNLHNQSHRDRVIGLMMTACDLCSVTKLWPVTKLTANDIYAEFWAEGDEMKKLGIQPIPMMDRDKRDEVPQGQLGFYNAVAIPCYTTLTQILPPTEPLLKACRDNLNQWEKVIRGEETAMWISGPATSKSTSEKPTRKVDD
Method: as §1

[6] = Table 7, read-out: PDE10 pig IC50
[7] = Table 7, read-out: Human PDE10 (IC50 nM)

T1 sequence (Q9Y233 1-779 isoform Q9Y233-1): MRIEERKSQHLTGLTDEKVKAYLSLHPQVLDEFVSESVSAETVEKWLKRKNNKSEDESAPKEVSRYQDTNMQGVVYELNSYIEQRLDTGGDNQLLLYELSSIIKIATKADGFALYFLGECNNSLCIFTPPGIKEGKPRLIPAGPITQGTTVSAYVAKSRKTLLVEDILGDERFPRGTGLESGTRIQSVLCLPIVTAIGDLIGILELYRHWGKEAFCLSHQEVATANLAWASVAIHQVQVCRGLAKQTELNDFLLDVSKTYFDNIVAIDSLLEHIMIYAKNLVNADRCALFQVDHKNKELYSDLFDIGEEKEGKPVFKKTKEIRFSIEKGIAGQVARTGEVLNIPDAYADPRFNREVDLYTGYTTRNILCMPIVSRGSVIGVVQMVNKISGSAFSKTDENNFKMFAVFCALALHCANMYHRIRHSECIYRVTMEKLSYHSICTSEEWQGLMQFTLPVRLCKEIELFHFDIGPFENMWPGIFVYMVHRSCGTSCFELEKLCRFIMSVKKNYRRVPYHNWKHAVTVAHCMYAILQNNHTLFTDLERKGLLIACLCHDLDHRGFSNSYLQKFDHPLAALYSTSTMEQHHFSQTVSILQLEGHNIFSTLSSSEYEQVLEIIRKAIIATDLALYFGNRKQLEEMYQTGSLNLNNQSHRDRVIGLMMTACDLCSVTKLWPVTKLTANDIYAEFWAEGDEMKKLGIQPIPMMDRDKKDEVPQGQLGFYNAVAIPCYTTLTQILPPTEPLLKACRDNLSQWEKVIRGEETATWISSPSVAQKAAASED
Chain of PDE10 from guinea pig striatum (A0A286XN47 1-773): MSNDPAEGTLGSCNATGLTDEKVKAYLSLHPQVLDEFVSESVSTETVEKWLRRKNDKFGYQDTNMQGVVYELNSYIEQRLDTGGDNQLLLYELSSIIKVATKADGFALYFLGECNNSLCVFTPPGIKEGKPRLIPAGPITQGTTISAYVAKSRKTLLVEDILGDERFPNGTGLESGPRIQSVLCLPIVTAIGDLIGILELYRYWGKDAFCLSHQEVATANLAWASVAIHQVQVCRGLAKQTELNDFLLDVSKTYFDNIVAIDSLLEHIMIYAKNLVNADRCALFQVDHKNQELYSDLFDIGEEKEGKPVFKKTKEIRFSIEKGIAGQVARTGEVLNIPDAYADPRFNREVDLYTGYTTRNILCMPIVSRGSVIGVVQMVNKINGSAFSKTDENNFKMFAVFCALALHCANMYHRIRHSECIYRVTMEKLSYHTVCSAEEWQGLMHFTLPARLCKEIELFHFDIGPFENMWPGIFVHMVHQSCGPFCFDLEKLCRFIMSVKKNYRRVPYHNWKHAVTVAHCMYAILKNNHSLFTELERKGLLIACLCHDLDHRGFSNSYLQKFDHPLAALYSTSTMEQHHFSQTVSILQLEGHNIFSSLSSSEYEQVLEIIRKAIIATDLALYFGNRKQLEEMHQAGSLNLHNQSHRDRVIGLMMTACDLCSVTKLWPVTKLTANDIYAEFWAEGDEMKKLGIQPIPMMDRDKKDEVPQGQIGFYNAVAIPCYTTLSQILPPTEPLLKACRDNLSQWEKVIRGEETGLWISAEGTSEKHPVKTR
Chain of Phosphodiesterase (PDE) 10A (Q9Y233 whole entry): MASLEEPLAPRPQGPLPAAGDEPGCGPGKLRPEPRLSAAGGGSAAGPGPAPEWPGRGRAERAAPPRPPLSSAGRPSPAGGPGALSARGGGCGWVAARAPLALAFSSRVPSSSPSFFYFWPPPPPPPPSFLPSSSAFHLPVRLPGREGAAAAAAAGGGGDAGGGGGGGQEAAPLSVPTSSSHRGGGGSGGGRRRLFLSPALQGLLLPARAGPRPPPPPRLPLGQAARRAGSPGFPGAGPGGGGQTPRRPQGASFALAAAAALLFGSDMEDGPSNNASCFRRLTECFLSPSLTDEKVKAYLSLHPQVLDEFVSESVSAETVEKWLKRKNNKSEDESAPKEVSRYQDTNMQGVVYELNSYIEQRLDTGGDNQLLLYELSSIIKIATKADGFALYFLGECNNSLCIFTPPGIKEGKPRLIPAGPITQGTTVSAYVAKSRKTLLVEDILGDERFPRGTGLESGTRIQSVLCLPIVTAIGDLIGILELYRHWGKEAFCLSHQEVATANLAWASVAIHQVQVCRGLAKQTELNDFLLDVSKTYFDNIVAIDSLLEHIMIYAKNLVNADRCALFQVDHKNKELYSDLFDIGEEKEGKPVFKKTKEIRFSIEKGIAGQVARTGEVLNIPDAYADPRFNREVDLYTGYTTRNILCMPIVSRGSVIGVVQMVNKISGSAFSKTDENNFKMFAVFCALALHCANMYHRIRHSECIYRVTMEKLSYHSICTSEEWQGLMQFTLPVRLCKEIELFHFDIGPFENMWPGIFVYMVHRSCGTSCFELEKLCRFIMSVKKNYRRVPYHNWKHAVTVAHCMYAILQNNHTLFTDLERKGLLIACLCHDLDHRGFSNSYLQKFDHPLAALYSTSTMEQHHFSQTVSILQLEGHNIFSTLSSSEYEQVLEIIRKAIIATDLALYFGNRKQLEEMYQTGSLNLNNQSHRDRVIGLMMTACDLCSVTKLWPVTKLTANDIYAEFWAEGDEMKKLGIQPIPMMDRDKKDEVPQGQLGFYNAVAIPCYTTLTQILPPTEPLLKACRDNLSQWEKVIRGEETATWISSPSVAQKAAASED

| IC50 (PDE10 from pig striatum; [6]) [nM] | IC50 (human recombinant PDE10A; [7]) [nM] | IC50 (human recombinant PDE10A; Table 9, read-out: hPDE10 IC50) [nM] | Compound | further results |
| --- | --- | --- | --- | --- |
| < 10 | 10 to 100 | – | COc1ccc(Cl)c(-c2nc(C)c3c(C)nc4ccc(OC)nc4n23)c1 [Example 19, 9-(2-Chloro-5-methoxyphenyl)-2-methoxy-6,7-dimethylimidazo[1,5-a]pyrido[3,2-e]pyrazine] | – |
| < 10 | 10 to 100 | – | COc1ccc2nc(C)c3c(C)nc(-c4cc(C)ccc4F)n3c2n1 [Example 21, 9-(2-Fluoro-5-methylphenyl)-2-methoxy-6,7-dimethylimidazo[1,5-a]pyrido[3,2-e]pyrazine] | – |
| 10 to 100 | 10 to 100 | – | CCOc1ccc(Cl)c(-c2nc(C)c3c(C)nc4ccc(OC)nc4n23)c1 [Example 26, 9-(2-Chloro-5-ethoxyphenyl)-2-methoxy-6,7-dimethylimidazo[1,5-a]pyrido[3,2-e]pyrazine] | – |
| – | – | > 100 | COc1ccc2nc(C)c3c(C)nc(-c4cnn(CC(C)C)c4)n3c2n1 [Example 182, 2-methoxy-6,7-dimethyl-9-[1-(2-methylpropyl)-1H-pyrazol-4-yl]imidazo[1,5-yl}imidazo[1,5-a]pyrido[3,2-e]pyrazine] | – |
| – | – | < 10 | COc1cncc(-c2nc(C)c3c(C)nc4ccc(OC)nc4n23)c1 [Example 184, 2-methoxy-9-(5-methoxypyridin-3-yl)-6,7-dimethylimidazo[1,5-a]pyrido[3,2-e]pyrazine] | – |
| – | – | > 100 | CCCn1cc(-c2nc(C)c3c(C)nc4ccc(OC)nc4n23)cn1 [Example 189, 2-methoxy-6,7-dimethyl-9-(1-propyl-1H-pyrazol-4-yl)imidazo[1,5-a]pyrido[3,2-e]pyrazine] | – |

Second part, the compound before the results:

| Compound | IC50 (PDE10 from pig striatum; [6]) [nM] | IC50 (human recombinant PDE10A; [7]) [nM] | IC50 (human recombinant PDE10A; Table 9, read-out: hPDE10 IC50) [nM] | further results |
| --- | --- | --- | --- | --- |
| COc1ccc2nc(C)c3c(C)nc(-c4ccc(C(F)(F)F)cc4Cl)n3c2n1 [Example 20, 9-[2-Chloro-4-(trifluoromethyl)phenyl]-2-methoxy-6,7-dimethylimidazo[1,5-a]pyrido[3,2-e]pyrazine] | < 10 | < 10 | – | – |
| COc1ccc2nc(C)c3c(C)nc(-c4cc(C(F)(F)F)ccc4Cl)n3c2n1 [Example 23, 9-[2-Chloro-5-(trifluoromethyl)phenyl]-2-methoxy-6,7-dimethylimidazo[1,5-a]pyrido[3,2-e]pyrazine] | < 10 | < 10 | – | – |
| COc1ccc2nc(C)c3c(C)nc(-c4cc(OC(F)(F)F)ccc4Cl)n3c2n1 [Example 24, 9-[2-Chloro-5-(trifluoromethoxy)phenyl]-2-methoxy-6,7-dimethylimidazo[1,5-]pyrido[3,2-e]pyrazine] | 10 to 100 | 10 to 100 | – | – |
| COc1ccc2nc(C)c3c(C)nc(-c4cc(C#N)ccc4Cl)n3c2n1 [Example 25, 4-Chloro-3-(2-methoxy-6,7-dimethylimidazo[1,5-a]pyrido[3,2-e]pyrazin-9-yl)benzonitrile] | < 10 | 10 to 100 | – | – |
| COc1ccc2nc(C)c3c(C)nc(-c4ccc(N5CCOCC5)nc4)n3c2n1 [Example 187, 2-methoxy-6,7-dimethyl-9-(6-morpholin-4-ylpyridin-3-yl)imidazo[1,5-a]pyrido[3,2-e]pyrazine] | – | – | > 100 | – |
| COc1ccc2nc(C)c3c(C)nc(-c4cccc(N5CCOCC5)c4)n3c2n1 [Example 188, 2-methoxy-6,7-dimethyl-9-(3-morpholin-4-ylphenyl)imidazo[1,5-a]pyrido[3,2-e]pyrazine] | – | – | > 100 | – |
| COc1ccc2nc(C)c3c(C)nc(-c4cnn(CCN5CCOCC5)c4)n3c2n1 [Example 190, 2-methoxy-6,7-dimethyl-9-[1-(2-morpholin-4-ylethyl)-1H-pyrazol-4-yl]imidazo[1,5-a]pyrido[3,2-e]pyrazine] | – | – | > 100 | – |
| COc1ccc(Cc2nccc3cc(OC)c(OC)cc23)cc1OC [Papaverine, papaverine] | – | – | – | haloperidol-induced catalepsy [1]: increases haloperidol-induced catalepsy in rats; apomorphine-induced stereotypes [2]: reduces apomorphine-induced stereotypes in rats; IC50 (PDE10 from pig striatum; Method A, PDE10 from striatum of pig): 103 nM; IC50 (PDE10 from pig striatum; Method B, PDE10 from striatum of pig, read-out: IC50): 110 nM; dopamine concentration in rat brain [3]: reducing dopamine concentration in rat brain; IC50 [4]: 77 nM |
| Nc1nc2c(ncn2[C@@H]2O[C@@H]3COP(=O)(O)O[C@H]3[C@H]2O)c(=O)[nH]1 [cGMP] | – | – | – | Km (PDE10 from pig striatum; Method B, pig striatum, read-out: Km-value for the substrate): 2.2 µM; Km [5]: 3 µM; Km (PDE10 from rat striatum): 1.8 µM |
